From PMC6017932, “Synthesis of Selenium-Quinone Hybrid Compounds with Potential Antitumor Activity via Rh-Catalyzed C-H Bond Activation and Click Reactions” (Molecules : A Journal of Synthetic Chemistry and Natural …, 2017)

Legend:
[1] = tested on: HL-60 (human promyelocytic leukemia cells); experiment: MTT cytotoxicity, HL-60 cells; assay type: cell-based; details: Homo sapiens, HL-60, 72 h exposure, three independent experiments, read-out: Cytotoxic activity IC50 (95% CI) HL-60
Description: (§1) Compounds were evaluated for antitumor activity in cell culture in vitro using several human cancer cell lines obtained from the National Cancer Institute, NCI (Bethesda, MD, USA). […] The L929 cells were cultivated under standard conditions in DMEM with Earle’s salts. […] At the end of the incubation time (72 h), the plates were centrifuged and the medium was replaced by fresh medium (200 μL) containing 0.5 mg/mL MTT. After 3 h, the MTT formazan product was dissolved in DMSO (150 μL) and the absorbance was measured using a multiplate reader (Spectra Count, Packard, ON, Canada). The impact of compounds on cell proliferation was quantified as the percentage of control absorbance of the reduced dye at 550 nm. All cell culture based studies were performed in triplicate. All cells were mycoplasma-free.

[2] = tested on: HCT-116 (human colon carcinoma cells); experiment: MTT cytotoxicity, HCT-116 cells; assay type: cell-based; details: Homo sapiens, HCT-116, 72 h exposure, three independent experiments, read-out: Cytotoxic activity IC50 (95% CI) HCT-116
Description: as §1

[3] = tested on: SF295 (human glioblastoma cells); experiment: MTT cytotoxicity, SF295 cells; assay type: cell-based; details: Homo sapiens, SF-295, 72 h exposure, three independent experiments, read-out: Cytotoxic activity IC50 (95% CI) SF295
Description: as §1

[4] = tested on: NCIH-460 (human lung cells); experiment: MTT cytotoxicity, NCIH-460 cells; assay type: cell-based; details: Homo sapiens, NCI-H460, 72 h exposure, three independent experiments, read-out: Cytotoxic activity IC50 (95% CI) NCIH-460
Description: as §1

[5] = tested on: PC3 (human prostate cancer cells); experiment: MTT cytotoxicity, PC3 cells; assay type: cell-based; details: Homo sapiens, PC-3, 72 h exposure, three independent experiments, read-out: Cytotoxic activity IC50 (95% CI) PC3
Description: as §1

[6] = MTT cytotoxicity, L929 normal cells; assay type: cell-based, mouse; details: mouse, normal cell line, 72 h exposure, three independent experiments, read-out: Cytotoxic activity IC50 (95% CI) L929
Description: as §1

| Structure (SMILES) | IC50 [1] [µM] | IC50 [2] [µM] | IC50 [3] [µM] | IC50 [4] [µM] | IC50 [5] [µM] | IC50 at 72 h [6] [µM] | melting point [°C] |
| --- | --- | --- | --- | --- | --- | --- | --- |
| O=C1C=C([Se]c2ccccc2)C(=O)c2ccccc21 [Compound 2, 2-(Phenylselanyl)naphthalene-1,4-dione] | 1.96 | > 10 | > 10 | > 10 | > 10 | > 10 |  |
| COc1ccc([Se]C2=CC(=O)c3ccccc3C2=O)cc1 [Compound 3, 2-((4-Methoxyphenyl)selanyl)naphthalene-1,4-dione] | 4.68 | > 10 | > 10 | > 10 | > 10 | > 10 | 140.7 to 148.3 |
| O=C1C=C([Se]c2ccc(Cl)cc2)C(=O)c2ccccc21 [Compound 4, 2-((4-Chlorophenyl)selanyl)naphthalene-1,4-dione] | 2.25 | > 10 | > 10 | > 10 | > 10 | > 10 | 154.8 to 155.7 |
| O=C1C=C([Se]c2ccc(F)cc2)C(=O)c2ccccc21 [Compound 5, 2-((4-Fluorophenyl)selanyl)naphthalene-1,4-dione] | 2.16 | > 10 | > 10 | > 10 | > 10 | > 10 | 139.2 to 139.9 |
| COC1=C(CN=[N+]=[N-])C(=O)c2ccccc2C1=O [Compound 8, 2-(Azidomethyl)-3-methoxynaphthalene-1,4-dione] | > 10 | > 10 | > 10 | > 10 | > 10 | > 10 |  |
| COC1=C(Cn2cc(-c3ccccc3)nn2)C(=O)c2ccccc2C1=O [Compound 9, 2-Methoxy-3-((4-phenyl-1H-1,2,3-triazol-1-yl)methyl)naphthalene-1,4-dione] | 5.39 | > 10 | > 10 | > 10 | > 10 | > 10 | 103.8 to 104.7 |
| COC1=C(Cn2cc(-c3ccc([N+](=O)[O-])cc3)nn2)C(=O)c2ccccc2C1=O [Compound 10, 2-Methoxy-3-((4-(4-nitrophenyl)-1H-1,2,3-triazol-1-yl)methyl)naphthalene-1,4-dione] | > 10 | > 10 | > 10 | > 10 | > 10 | > 10 | 205.8 to 206.7 |
| COC1=C(Cn2cc(-c3ccc(OC)cc3)nn2)C(=O)c2ccccc2C1=O [Compound 11, 2-Methoxy-3-((4-(4-methoxyphenyl)-1H-1,2,3-triazol-1-yl)methyl)naphthalene-1,4-dione] | 2.32 | > 10 | > 10 | > 10 | > 10 | > 10 | 149.3 to 150.7 |
| COC1=C(Cn2cc(-c3ccc(C)cc3)nn2)C(=O)c2ccccc2C1=O [Compound 12, 2-Methoxy-3-((4-(p-tolyl)-1H-1,2,3-triazol-1-yl)methyl)naphthalene-1,4-dione] | > 10 | > 10 | > 10 | > 10 | > 10 | > 10 | 123.1 to 124.5 |
| COC1=C(Cn2cc(C[Se]c3ccc(OC)cc3)nn2)C(=O)c2ccccc2C1=O [Compound 15, 2-Methoxy-3-((4-(((4-methoxyphenyl)selanyl)methyl)-1H-1,2,3-triazol-1-yl)methyl)naphthalene-1,4-dione] | > 10 | > 10 | > 10 | > 10 | > 10 | > 10 |  |
| COc1cccc2c1C(=O)c1c(O)c3c(c(O)c1C2=O)C[C@@](O)(C(=O)CO)C[C@@H]3O[C@H]1C[C@H](N)[C@H](O)[C@H](C)O1 [DOXO, Doxorubicin, reference compound] | 0.02 | 0.21 |  |  | 0.76 | 1.72 |  |
